For seven compounds, GI50 and IC50 results are on record in ChEMBL document CHEMBL4610109, “Targeting Orthosteric and Allosteric Pockets of Aromatase via Dual-Mode Novel Azole Inhibitors” (ACS Med Chem Lett, 2020).

Structures are written as SMILES. Where only a bound is given, the exact number is not on record here.

One experiment concerns MCF7. Nature of the experiment: Growth inhibition of human ER-positive MCF7 cells incubated for 72 hrs by cell counter method. Format: functional. The note with it: MCF7, 72 h.
The test system of the next experiment is MDA-MB-231. Nature of the experiment: Growth inhibition of human ER-negative MDA-MB-231 cells incubated for 72 hrs by cell counter method. Particulars: MDA-MB-231, 72 h. Format: functional.
A further experiment concerns the target T1, Aromatase (Homo sapiens, UniProt P11511).
T1 sequence (P11511 whole entry): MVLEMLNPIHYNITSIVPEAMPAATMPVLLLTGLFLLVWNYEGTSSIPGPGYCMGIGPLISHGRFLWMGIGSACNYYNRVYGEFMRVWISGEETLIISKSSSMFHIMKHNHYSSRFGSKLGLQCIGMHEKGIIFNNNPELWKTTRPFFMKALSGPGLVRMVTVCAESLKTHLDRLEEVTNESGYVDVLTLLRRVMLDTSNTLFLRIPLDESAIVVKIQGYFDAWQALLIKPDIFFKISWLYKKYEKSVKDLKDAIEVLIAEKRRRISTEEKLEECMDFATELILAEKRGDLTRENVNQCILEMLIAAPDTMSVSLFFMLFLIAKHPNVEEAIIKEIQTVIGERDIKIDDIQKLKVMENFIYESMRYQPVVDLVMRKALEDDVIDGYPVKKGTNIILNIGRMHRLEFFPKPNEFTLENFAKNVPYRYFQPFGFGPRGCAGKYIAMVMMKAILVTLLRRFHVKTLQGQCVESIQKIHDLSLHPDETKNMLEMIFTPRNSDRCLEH
Kind of experiment: Inhibition of recombinant human aromatase preincubated for 10 mins followed by substrate and beta-NADP+ addition and measured for 60 mins by fluorescence based assay.

The GI50 is the concentration at which growth is held to half of that of the control. A higher GI50 goes with lower sensitivity of the cells. One may read the IC50 as the concentration at which inhibition is half-maximal.

Regarding `O=c1c2ccccc2oc2c(Cn3ccnc3)cccc12`, the GI50 in the experiment on MCF7 was determined as 69.1 µM; in the experiment with MDA-MB-231, 58.3 µM.

In the case of `O=c1c2ccccc2oc2cccc(Cn3ccnc3)c12`, the figures for the GI50 in the experiment on MCF7 and with MDA-MB-231 were 59 µM and 44.3 µM, respectively.

As for `N#Cc1ccc(C(c2ccc(C#N)cc2)n2cncn2)cc1` [LETROZOLE], the GI50 in the experiment with MDA-MB-231 came out at 34 µM.

Consider `CCC#CCOc1cc(Cn2ccnc2)c2oc3ccccc3c(=O)c2c1`, for which the IC50 at Aromatase turned out to be 5550 nM. Also, the GI50 stood at 52.3 µM in the experiment on MCF7 and 21.1 µM in the experiment with MDA-MB-231.

In the case of `O=c1c2ccccc2oc2cc(Cn3ccnc3)ccc12`, the GI50 in the experiment on MCF7 is 19.9 µM; with MDA-MB-231, 30.4 µM.

Consider `CCC#CCOc1cc(Cn2ccnc2)c2c(=O)c3ccccc3oc2c1`, for which the IC50 on Aromatase was determined as 2850 nM. Further, the GI50 with MCF7 is 6.3 µM; in the experiment with MDA-MB-231, 17.5 µM.

As for `CCC#CCOc1ccc2c(=O)c3ccc(Cn4ccnc4)cc3oc2c1`, on Aromatase, the IC50 came out at 770 nM. Further, the GI50 in the experiment on MCF7 and with MDA-MB-231 was over 100 µM each time.
